Assay results published in US7101701B2, “Method to reduce contamination when culturing mycobacteria” (The Trustees of the University of Pennsylvania, priority 2004, dated 2006).
Where no end group is shown, it is not given here.

Tests used:
[1] = system: chymotrypsin; conditions: Pep5 variant; cited from earlier work
[2] = system: Acid Fast bacillus; assay: Acid fast smears (Ziehl-Neelson) of culture tubes; assay type: cell-based, Mycobacterium avium subsp. paratuberculosis; conditions: for Acid Fast Results or CFUs: per replicate tube
Source text: One of the most distinctive properties of Mycobacteria is the impermeability of their lipid-rich cell walls to various basic dyes, unless the dye is combined with phenol. Once stained, the cells resist decolorization with acidified organic solvents, and are, therefore called “acid fast.” Acid fast staining methods include, but are not limited to, Ziehl-Neelsen (ZN) carbolfuchsin staining, fluorochrome staining (auromine O and rhodamine B) and Kinyoun carbolfuchsin staining.

[3] = system: MAP ATCC# 700535; assay: MGIT 960 liquid culture of MAP isolate dilutions, time to positive; assay type: cell-based, Mycobacterium avium subsp. paratuberculosis; conditions: for TTP (days): 600 ul EY
Procedure: (§1) Middlebrook 7H9 broth was prepared by suspending 4.7 grams Middlebrook 7H9 dehydrated base (BD Diagnostics, Sparks, Md.) in 900 ml of double distilled water. The solution was autoclaved for 20 minutes at 121° C., and stored in a refrigerator when not in use. A 50% egg yolk suspension was stored in a refrigerator. Nisin was prepared in 1–2 M hydrochloride acid (HCl) at a concentration of 100 mg/ml. ANV cocktail (5 mg/ml) was prepared from the individual antibiotics and stored frozen.
Dilutions of MAP ATCC# 700535 were prepared as follows. A working stock vial, at 10^−2, stored at −70° C. freezer, was thawed in a 37° C. incubator. Using individually-wrapped, sterile glass pipettes, a serial dilution series was made in sterile 15 ml conical tubes. One (1) ml of MAP at 10^−2 was diluted into 9 ml of 7H9 medium and mixed well to yield a 10^−3 solution. One ml of this solution was diluted into another tube of 9 ml 7H9 to yield a 10^−4 solution. This process was repeated again to produce a 10^−5 solution. The serial dilutions were plated on HEYM flasks, 100 ul dilution per flask, and placed in an incubator.
(§2) Cultures were set up in MGIT™ tubes (BD Diagnostics, Sparks, Md.). MGIT™ tubes contain an oxygen-sensitive fluorescent compound, tris 4,7-diphenyl-1,10-phenanthroline ruthenium chloride pentahydrate, in silicone base that detects growth by increased fluorescence as oxygen consumption in the culture increases. The tubes were barcoded for scanning in a BACTEC™ MGIT™ 960 machine (BD Diagnostics, Sparks, Md.).
(§3) Vials of nisin and ANV, stored in a standard freezer, were thawed in a 37° C. incubator. Egg yolk, OADC or OACC (BD Diagnostics, Sparks, Md.) and 7H9, stored in a standard refrigerator, were warmed in a 37° C. incubator. Using sterile pipet tips (autoclaved), components were aliquoted into barcoded MGIT™ culture tubes as follows: OADC or OACC (800 μl); 50% egg yolk suspension (600 μl except for […] control tubes having 60 μl. The volume difference in volume made up by 7H9); 7H9; 5 mg/ml ANV (30 μl); 100 mg/ml nisin (quantity determined by desired final concentration); and organism sample (100 μl). 7H9 was added at the quantity needed to bring the final volume of each tube to 8.9 ml, so that the tubes had identical head space. After all components were added, tubes were tightly capped and inverted three times. The tubes were placed in the MGIT™ 960 machine and scanned in after they registered as unknown at the next hourly reading.
(§4) The experiment was designed to test a MAP isolate (ATCC# 700535) at three different concentrations (MAP 10^−3, MAP 10^−4 and MAP 10^−5). Three field samples (processed fecal matter) named Annabelle, Heidi and Meck 42 were also tested in the experiment. Seven conditions were tested for effectiveness against bacterial contamination in mycobacterial cultures: ANV alone, five different nisin concentrations and HCl, the diluent for nisin. Generally, each sample was tested in triplicate for each solution. There were eleven additional control tubes; two tubes for additives (5 μl nisin and 30 μl ANV) and 9 tubes for weekly performance (no ANV and 60 μl 50% egg yolk suspension; WP). The WP tubes were used to monitor test performance and reproducibility over time.

[4] = system: bacterial contamination and MAP in processed fecal field samples (Annabelle, Heidi, Meck 42); assay: MGIT 960 liquid culture of processed fecal field samples, time to positive / contamination; assay type: cell-based, Mycobacterium avium subsp. paratuberculosis; conditions: for TTP (days): 50000 ug nisin per tube, 1 tube only
Procedure: as §1
Vials of processed fecal field samples, Annabelle, Heide and Meck 42, stored at −70° C., were thawed in a 37° C. incubator. The samples had been previously processed according to the Cornell modified decontamination and inoculation method as described in Whitlock et al., supra (2000).
as §2, §3, §4

[5] = system: at least some strains; conditions: when used with at least some strains; cited from earlier work
[6] = Meck and Annabelle samples, tubes 4F and 7F (10000 ug nisin)

For “A19C Pep5: Pep5 variant from the literature (TAGPAIRASVKQCQKTLKCTRLFTVSCKGKNGCK; also: lantibiotic Pep5: thioether rings and dehydro residues not placed; UniProt P19578 27-60, looked up, variant A19C)”, which stability to chymotrypsin [1] is on record?
The stability to chymotrypsin was “more stable to chymotrypsin”.

For “nisin (ITSISLCTPGCKTGALMGCNMKTATCHCSIHVSK; cysteine pairing not given here; also: lantibiotic lanthionine modifications not placed; UniProt P13068 24-57, looked up) [34 amino acid pentacyclic class A lantibiotic peptide produced by Lactococcus lactis; stock 100 mg/ml in HCl]”, which “Acid Fast Results or CFUs” value ([2]; Annabelle field sample, 10000 ug nisin per tube) is on record?
The value was 4+Pos–4+Pos–ND.

And the “Acid Fast Results or CFUs” value ([2]; Heidi field sample, 500 ug nisin per tube)?
Its value is 4+Pos–4+Pos–ND.

What about the “Acid Fast Results or CFUs” value ([2]; Heidi field sample, 1000 ug nisin per tube) of the same substance?
The value was 4+Pos–4+Pos–ND.

And the “Acid Fast Results or CFUs” value ([2]; Heidi field sample, 5000 ug nisin per tube)?
Its value is 4+Pos–3+Pos–ND.

What about the “Acid Fast Results or CFUs” value ([2]; Heidi field sample, 10000 ug nisin per tube) of the same substance?
Its value is 4+Pos–ND–ND.

And the “Acid Fast Results or CFUs” value ([2]; MAP 10^−3, 10000 ug nisin per tube)?
Its value is 4+Pos–4+Pos–ND.

And the “Acid Fast Results or CFUs” value ([2]; Meck 42 field sample, 1000 ug nisin per tube)?
Its value is “ND–ND–4+Pos”.

What about the “Acid Fast Results or CFUs” value ([2]; Meck 42 field sample, 5000 ug nisin per tube) of the same substance?
The value was “BC–4+Pos–4+Pos”.

And the “Acid Fast Results or CFUs” value ([2]; Meck 42 field sample, 10000 ug nisin per tube)?
The value was “ND–4+Pos–4+Pos”.

And the “AFB (acid-fast bacilli smears)” value [2, 6]?
The value was 4+Positive.

And the “TTP (days)” value ([3]; MAP 10^−4, 500 ug nisin per tube, three replicate tubes)?
Its value is 19.3–20.6–No gu's.

What about the “TTP (days)” value ([3]; MAP 10^−4, 50000 ug nisin per tube) of the same substance?
The value was “No gu's”.

What about the “TTP (days)” value ([3]; MAP 10^−5, 5000 ug nisin per tube, three replicate tubes) of the same substance?
The value was 32.4–38.7–2 gu's.

And the “reduction of TTP compared to 30 ul ANV” value ([3]; nisin at 10,000 ug/tube, tubes 3A and 3F (MAP 10^−5))?
The value was “approximately 30%”.

And the “inhibitory effect on MAP growth” value ([3]; nisin with 600 ul EY)?
The value was “little inhibitory effect on MAP growth”.

What about the “time to recover TNTC animals” value ([4]; 600 ul 50% egg yolk suspension, nisin approximately 5000 to 10,000 ug per tube) of the same substance?
The value was less than 15 days.

What about the “TTP (days)” value ([4]; Annabelle field sample) of the same substance?
The value was 43.7 (1 tube only) days.

What about the “TTP (days)” value ([4]; Heidi field sample) of the same substance?
Its value is “No gu's (1 tube only)”.

What about the “TTP (days)” value ([4]; Meck 42 field sample) of the same substance?
The value was 54.4 (1 tube only) days.

And the “time at which tubes flagged positive” value [4, 6]?
The value was 14 to 17 days.

And the “control of non-mycobacterial contamination and MAP growth” value ([4]; field samples, particularly at 10,000 ug nisin)?
Its value is “controlled non-mycobacterial contamination with little retardation of MAP growth”.

Which antibacterial activity [5] does the source give for “L6V gallidermin: gallidermin variant from the literature (IASKFVCTPGCAKTGSFNSYCC; cysteine pairing not given here; also: lantibiotic lanthionine modifications not placed; UniProt P21838 31-52, looked up, variant L6V)” here?
The antibacterial activity was “enhanced antibacterial activity”.
